16 molecules from US11492347B2 (ENYO PHARMA, priority 2018, dated 2022) can be followed below.

The subject of the assay is H1N1 (influenza A/New Caledonia/20/99). Nature of the assay: microbe, parasite or virus in culture. The assay is classed as cell-based. As to conditions: H1N1, A549, 48 h.

Regarding `CC1(C)Cc2c(sc(NC(=O)c3ccc(C4CCOCC4)cc3)c2C(=O)O)C(C)(C)C1` [#174, 5,5,7,7-Tetramethyl-2-[(4-tetrahydropyran-4-ylbenzoyl)amino]-4,6-dihydrobenzothiophene-3-carboxylic acid], half-maximal inhibition (IC50) was put at 39 nM.
The figure for `COC1CC(N(C)c2ccc(C(=O)Nc3sc4c(c3C(=O)O)CC(C)(C)CC4(C)C)cc2)C1` (stereo not shown) [#165, 2-[[4-[(3-Methoxycyclobutyl)-methyl-amino]benzoyl]amino]-5,5,7,7-tetramethyl-4,6-dihydrobenzothiophene-3-carboxylic acid] is 11.7 nM; for `CC1(C)CCc2sc(NC(=O)c3ccn(CC4CCOCC4)n3)c(C(=O)O)c2C1` [#228, 5,5-Dimethyl-2-[[1-(tetrahydropyran-4-ylmethyl)pyrazole-3-carbonyl]amino]-6,7-dihydro-4H-benzothiophene-3-carboxylic acid] it is 900 nM; for `CC1(C)CCc2c(sc(NC(=O)c3cnc(N4CCOCC4)cn3)c2C(=O)O)C1` [#230, 6,6-Dimethyl-2-[(5-morpholinopyrazine-2-carbonyl)amino]-5,7-dihydro-4H-benzothiophene-3-carboxylic acid] it is 420 nM.
As for `CN(c1ccc(C(=O)Nc2sc3c(c2C(=O)O)CC(C)(C)CC3)cc1)C1CCOCC1` [#160, 5,5-Dimethyl-2-[[4-[methyl(tetrahydropyran-4-yl)amino]benzoyl]amino]-6,7-dihydro-4H-benzothiophene-3-carboxylic acid], the IC50 (commonly the point on the concentration scale where inhibition reaches its midpoint) was found to be 6 nM.
Regarding `Cc1ccccc1C(=O)Nc1sc2c(c1C(=O)O)CCC(C#N)(c1ccccc1)C2` (stereo not shown) [Compound #105, 6-Cyano-2-[(2-methylbenzoyl)amino]-6-phenyl-5,7-dihydro-4H-benzothiophene-3-carboxylic acid], the midpoint of inhibition, the IC50, lay at 1080 nM.
The figure for `CC1(C)CCc2c(sc(NC(=O)c3ccc(F)cc3)c2C(=O)O)C1` [Compound #19, 2-[(4-Fluorobenzoyl)amino]-6,6-dimethyl-5,7-dihydro-4H-benzothiophene-3-carboxylic acid] is 110 nM; for `CC1(C)CCc2sc(NC(=O)c3ccc(N4CCOCC4)cc3)c(C(=O)O)c2C1` [Compound #159, 5,5-Dimethyl-2-[(4-morpholinobenzoyl)amino]-6,7-dihydro-4H-benzothiophene-3-carboxylic acid] it is 18 nM.
Turning to `O=C(Nc1sc2c(c1C(=O)O)C1CCC2C1)c1ccccc1` (stereo not shown) [Compound #28, 2-Benzamido-4,5,6,7-tetrahydro-4,7-methanobenzo[b]thiophene-3-carboxylic acid], the concentration for half-maximal inhibition (IC50) was found to be 1270 nM.
The figure for `O=C(Nc1sc2c(c1C(=O)O)CCC1(CC1)C2)c1ccccc1` [Compound #29, 2-Benzamidospiro[5,7-dihydro-4H-benzothiophene-6,1′-cyclopropane]-3-carboxylic acid] is 90 nM.
With `CC(=O)N1CCC(Nc2ccc(C(=O)Nc3sc4c(c3C(=O)O)CC(C)(C)CC4(C)C)cc2)CC1` [Compound #63, 2-[[4-[(1-Acetyl-4-piperidyl)amino]benzoyl]amino]-5,5,7,7-tetramethyl-4,6-dihydrobenzothiophene-3-carboxylic acid], the half-inhibitory concentration (IC50) was determined as 80 nM. The IC50 values of the last two molecules are within 1.5-fold of each other.
With `CC1CC(C)(C)Cc2sc(NC(=O)c3ccc(N(C)C4CCOCC4)cc3)c(C(=O)O)c21` (stereo not shown) [#171] the figure was 6.3 nM; with `CC1(C)CCc2sc(NC(=O)c3ccc(N4CCOCC4)nn3)c(C(=O)O)c2C1` [#227, 5,5-Dimethyl-2-[(6-morpholinopyridazine-3-carbonyl)amino]-6,7-dihydro-4H-benzothiophene-3-carboxylic acid], 1390 nM.
With `COCCNc1ccc(C(=O)Nc2sc3c(c2C(=O)O)C(C)(C)CC3)cc1` [Compound #64, 2-[[4-(2-Methoxyethylamino)benzoyl]amino]-4,4-dimethyl-5,6-dihydrocyclopenta[b]thiophene-3-carboxylicacid], the IC50 came to 90 nM.
The figure for `CC1(C)Cc2c(sc(NC(=O)c3ccc(N4CC(F)(F)C4)cc3)c2C(=O)O)C(C)(C)C1` [Compound #148, 2-[[4-(3,3-Difluoroazetidin-1-yl)benzoyl]amino]-5,5,7,7-tetramethyl-4,6-dihydrobenzothiophene-3-carboxylic acid] is 2.6 nM; for `CC1(C)CCc2c(sc(NC(=O)c3ccc(F)cc3F)c2C(=O)O)C1` [Compound #17, 2-[(2,4-Difluorobenzoyl)amino]-6,6-dimethyl-5,7-dihydro-4H-benzothiophene-3-carboxylic acid] it is 260 nM.
